In paper PMC10581193 (Microbiology Spectrum, 2023):
≈ marks a conversion by molar mass, not a printed value.

What was measured:
M. tuberculosis H37Ra = assay: microbe, parasite or virus in culture; assay type: cell-based, Mycobacterium tuberculosis; conditions: for MIC: Mycobacterium tuberculosis, H37RA, read-out: MIC against H37Ra
H37Rv = assay: MIC susceptibility testing against H37Rv; assay type: cell-based, Mycobacterium tuberculosis; conditions: for MIC: Mycobacterium tuberculosis; for Fold increase: B18 versus TBA-7371
Y48 (MDR) = assay: microbe, parasite or virus in culture; assay type: cell-based, M. tuberculosis; conditions: for MIC: Mycobacterium tuberculosis
Y17 (MDR) = assay: microbe, parasite or virus in culture; assay type: cell-based, M. tuberculosis; conditions: for MIC: Mycobacterium tuberculosis
Y198 (XDR) = assay: microbe, parasite or virus in culture; assay type: cell-based, M. tuberculosis; conditions: for MIC: Mycobacterium tuberculosis
A549 = assay: Cell viability assay (MTT), A549; assay type: cell-based; conditions: Homo sapiens, 48 h
Description: (§1) Cell viabilities were measured by 3-(4,5-dimethylthiazol-2-yl)−2,5-diphenyltetrazolium bromide (MTT) assay. Briefly, 20 µL of 5 mg/mL MTT solution was added to the culture medium and incubated at 37°C for 3 h. Then 50 µL of 20% (wt/vol) SDS was directly added to each well and incubated at 37°C overnight. The plates were shaken for 15 s and the […] reading were obtained at 570 nm wavelength. The IC50 values were calculated using the GraphPad Prism 8 software.

VERO = assay: Cell viability assay (MTT), VERO; assay type: cell-based; conditions: Chlorocebus sabaeus, 48 h
Description: as §1

[1] = test system: Staphylococcus aureus ATCC29213; assay: MIC against other strains, agar double dilution; conditions: ATCC29213, 24 h
S. aureus ATCC33591 = assay: MIC against other strains, agar double dilution; conditions: Staphylococcus aureus, ATCC33591, 24 h
S. epidermidis ATCC12228 = assay: MIC against other strains, agar double dilution; conditions: Staphylococcus epidermidis, ATCC12228, 24 h
[2] = test system: Enterococcus faecalis ATCC29212; assay: MIC against other strains, agar double dilution; conditions: ATCC29212, 24 h
E. faecium ATCC19434 = assay: MIC against other strains, agar double dilution; conditions: Enterococcus faecium, ATCC19434, 24 h
[3] = test system: Streptococcus pneumoniae ATCC49619; assay: MIC against other strains, agar double dilution; conditions: ATCC49619, 24 h
[4] = test system: Escherichia coli ATCC25922; assay: MIC against other strains, agar double dilution; conditions: ATCC25922, 24 h
E. coli ATCC35218 = assay: MIC against other strains, agar double dilution; conditions: Escherichia coli, ATCC35218, 24 h
[5] = test system: Klebsiella pneumoniae ATCC700603; assay: MIC against other strains, agar double dilution; conditions: ATCC700603, 24 h
[6] = test system: Pseudomonas aeruginosa ATCC27853; assay: MIC against other strains, agar double dilution; conditions: ATCC27853, 24 h
human PDE6C = biological target: T1, human PDE6C (Homo sapiens, UniProt P51160); assay: IMAP fluorescence polarization assay against PDE6C; assay type: biochemical
T1 construct: purchased BPS 60060
Description: Prepare assay buffer and stop buffer were prepared. […] Fluorescein Amidite - cyclic Guanosine Monophosphate (FAM-cGMP) was added in the 1× assay buffer for PDE6C, which was the 2× substrate solution. Two times enzyme solution was transferred to the assay plate: (i) assay plate already contained corresponding volume of compound in 100% DMSO; (ii) add 2× enzyme solution to each well of the 384-well assay plate; and (iii) incubate at room temperature for 15 min. Two times substrate solution was transferred to the assay plate. PDE reaction and termination: (i) incubate at 25°C for 40 min; (ii) add stop buffer to stop reaction, and incubate at RT for 60 min. Data were collected on Envision (Perkin Elmer). Data were fitted in Excel to obtain inhibition values using equation (1). Equation (1): Inh % = (Max − Signal)/(Max − Min) × 100. Fit the data in XL-Fit to obtain IC50 values using equation (2). Equation (2): Y = Bottom + (Top − Bottom)/[1 + (IC50/X) × HillSlope]. Y is the % inhibition and X is the compound concentration.

physchem = assay type: physicochemical; conditions: 37 °C, water, thermodynamic from solid
Description: Aqueous solubility of selected compounds was determined by High Performance Liquid Chromatography (HPLC) analysis. […] The absorption intensity of different concentrations of solutions was obtained by HPLC. The linear regression equation between absorption intensity and concentration was obtained by statistical method (R ^2 >0.99). A supersaturated aqueous solution of the target compound was prepared and shaken in 37°C water bath for 24 h. The supersaturated solution was centrifuged and filtered. The absorption intensity of the supersaturated solution was obtained by HPLC. The concentration of saturated aqueous solution was obtained by linear regression equation, which was the aqueous solubility of target compound.

in vitro = in vitro ADME; conditions: rat, plasma, pH 7.4
Description: 0.1 M sodium phosphate and 0.15 M NaCl buffer (pH = 7.4 ± 0.1) were preheated. The frozen plasma was thawed at 37°C. Plasma was centrifuged at 12,000 rpm for 5 min to remove clots. Pipette and collect the supernatant as the plasma to be used in the experiment. Dialysis membrane strips were soaked in distilled water for an hour. Add 20% by volume ethanol and soak for a further 20 min. The membrane strips were then rinsed in distilled water three times before use. Five microliters of 10 mM stock solution were added into 95 µL of acetonitrile (ACN) for reference and test compounds, which was 0.5 mM solution A. Eight microliters of 10 mM stock solution were added into 192 µL of ACN for reference and test compounds, which was 0.02 mM solution B. A 96-well plate with 380 µL aliquots of plasma was preloaded in the wells designated for plasma, respectively. Twenty microliters of solution B (0.02 mM) were spiked into the pre-loaded plasma in the 96-well plate. The final concentration is 1 µM, containing 0.01% DMSO. Aliquots of 100 µL of blank dialysis buffer were applied to the receiver side of dialysis chambers. Then, aliquots of 100 µL of the plasma spiked with test and reference compounds were applied to the donor side of the dialysis chambers (always add the blank buffer to the receiver first, clearly mark the buffer and plasma chamber holes to avoid cross-contamination). […]

T1 sequence (P51160 whole entry): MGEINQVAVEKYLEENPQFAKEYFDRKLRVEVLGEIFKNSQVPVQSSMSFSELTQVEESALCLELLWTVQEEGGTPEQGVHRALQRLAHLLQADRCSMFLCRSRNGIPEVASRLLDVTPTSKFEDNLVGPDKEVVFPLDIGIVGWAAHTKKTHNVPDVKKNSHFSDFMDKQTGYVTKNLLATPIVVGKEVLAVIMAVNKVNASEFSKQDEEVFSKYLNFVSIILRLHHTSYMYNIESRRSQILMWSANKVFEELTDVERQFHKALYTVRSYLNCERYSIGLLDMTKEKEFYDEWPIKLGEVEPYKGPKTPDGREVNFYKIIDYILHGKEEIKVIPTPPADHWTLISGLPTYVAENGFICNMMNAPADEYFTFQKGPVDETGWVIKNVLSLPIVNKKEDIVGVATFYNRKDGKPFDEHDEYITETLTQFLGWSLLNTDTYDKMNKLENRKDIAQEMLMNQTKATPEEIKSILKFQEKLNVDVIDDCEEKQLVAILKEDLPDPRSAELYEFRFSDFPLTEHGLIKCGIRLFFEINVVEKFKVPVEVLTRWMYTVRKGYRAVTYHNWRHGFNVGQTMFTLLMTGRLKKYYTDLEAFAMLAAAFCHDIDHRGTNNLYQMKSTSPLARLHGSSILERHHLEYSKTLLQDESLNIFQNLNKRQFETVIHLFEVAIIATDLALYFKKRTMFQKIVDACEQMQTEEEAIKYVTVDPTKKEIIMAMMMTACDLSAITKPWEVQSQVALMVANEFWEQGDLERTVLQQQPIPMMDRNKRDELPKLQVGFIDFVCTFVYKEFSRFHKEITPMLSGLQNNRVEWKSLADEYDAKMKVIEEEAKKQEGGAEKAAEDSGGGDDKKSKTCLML

Compound: COc1ncnc(Cn2cc(C(=O)NCCO)c3ncc(C)cc32)c1C [TBA-7371, reference compound]
- MIC (M. tuberculosis H37Ra): 0.18 µg/mL (≈ 0.506 µM)
- MIC (H37Rv; 72 h, 3 days): 2.5 µg/mL (≈ 7.03 µM)
- MIC (H37Rv; 168 h, 7 days): 0.625 µg/mL (≈ 1.76 µM)
- MIC (Y48 (MDR)): 0.6 µg/mL (≈ 1.69 µM)
- MIC (Y17 (MDR)): 0.6 µg/mL (≈ 1.69 µM)
- MIC (Y198 (XDR)): 1.25 µg/mL (≈ 3.52 µM)
- IC50 (A549): > 40 µM
- IC50 (VERO): > 40 µM
- MIC [1]: > 64 µg/mL
- MIC (S. aureus ATCC33591): > 64 µg/mL
- MIC (S. epidermidis ATCC12228): > 64 µg/mL
- MIC [2]: > 64 µg/mL
- MIC (E. faecium ATCC19434): > 64 µg/mL
- MIC [3]: > 64 µg/mL
- MIC [4]: > 64 µg/mL
- MIC (E. coli ATCC35218): > 64 µg/mL
- MIC [5]: > 64 µg/mL
- MIC [6]: > 64 µg/mL

Compound: Cc1nc(C)c(CN2CCOc3c(C(=O)NCC(F)(F)F)cc(C4CC4)cc32)nc1C [B18, 6-cyclopropyl-N-(2,2,2-trifluoroethyl)-4-((3,5,6-trimethylpyrazin-2-yl)methyl)-3,4-dihydro-2H-benzo[b][1,4]oxazine-8-carboxamide]
- MBC/MIC (M. tuberculosis H37Ra): < 4
- MIC against H37Ra (M. tuberculosis H37Ra): 0.18
- MIC (M. tuberculosis H37Ra): 0.18 µg/mL (≈ 0.414 µM)
- Fold increase (H37Rv; 3 days): 4
- Fold increase (H37Rv; 7 days): 1
- MIC (H37Rv; 72 h, 3 days): 0.625 µg/mL (≈ 1.44 µM)
- MIC (H37Rv; 168 h, 7 days): 0.625 µg/mL (≈ 1.44 µM)
- MIC (Y48 (MDR)): 0.6 µg/mL (≈ 1.38 µM)
- Fold increase (Y48 (MDR); […], B18 versus TBA-7371): 1
- MIC (Y17 (MDR)): 0.6 µg/mL (≈ 1.38 µM)
- Fold increase (Y17 (MDR); […], B18 versus TBA-7371): 1
- MIC (Y198 (XDR)): 5 µg/mL (≈ 11.5 µM)
- Fold increase (Y198 (XDR); […], B18 versus TBA-7371): 0.25
- IC50 (human PDE6C): 81 µM
- IC50 (A549): > 40 µM
- IC50 (VERO): > 40 µM
- solubility at 24 h (physchem): 21 µg/mL (≈ 48.3 µM)
- fraction unbound at 5 h, 1 µM (in vitro): 0.042
- MIC [1]: > 64 µg/mL
- MIC (S. aureus ATCC33591): > 64 µg/mL
- MIC (S. epidermidis ATCC12228): > 64 µg/mL
- MIC [2]: > 64 µg/mL
- MIC (E. faecium ATCC19434): > 64 µg/mL
- MIC [3]: > 64 µg/mL
- MIC [4]: 64 µg/mL (≈ 147 µM)
- MIC (E. coli ATCC35218): > 64 µg/mL
- MIC [5]: 64 µg/mL (≈ 147 µM)
- MIC [6]: 64 µg/mL (≈ 147 µM)

Compound: Cc1cc(C(=O)NC2CCCC2)c2c(c1)N(Cc1nc(C)c(C)nc1C)CCO2 [B15, N-cyclopentyl-6-methyl-4-((3,5,6-trimethylpyrazin-2-yl)methyl)-3,4-dihydro-2H-benzo[b][1,4]oxazine-8-carboxamide]
- MIC (M. tuberculosis H37Ra): 1.56 µg/mL (≈ 3.95 µM)

Compound: COc1ncc(C(F)(F)F)cc1Cn1ccc2c(C(=O)NCC(F)F)cc(Br)cc21 [A5, 6-bromo-N-(2,2-difluoroethyl)-1-((2-methoxy-5-(trifluoromethyl)pyridin-3-yl)methyl)-1H-indole-4-carboxamide]
- MIC (M. tuberculosis H37Ra): > 6.25 µg/mL

Compound: Cc1cc(C(=O)NCC(F)F)c2c(c1)N(Cc1nc(C)c(C)nc1C)CCO2 [B11, N-(2,2-difluoroethyl)-6-methyl-4-((3,5,6-trimethylpyrazin-2-yl)methyl)-3,4-dihydro-2H-benzo[b][1,4]oxazine-8-carboxamide]
- MIC (M. tuberculosis H37Ra): 0.18 µg/mL (≈ 0.461 µM)

Compound: Cc1nc(C)c(CN2CCOc3c(C(=O)NCC(F)(F)F)cc(-c4ccccc4)cc32)nc1C [B33]
- MIC (M. tuberculosis H37Ra): > 25 µg/mL

Compound: 6-bromo-N-(2-fluoroethyl)−4-((3,5,6-trimethylpyrazin-2-yl)methyl)−3,4-dihydro-2H-benzo[2, 4]oxazine-8-carboxamide [B1]
- MIC against H37Ra (M. tuberculosis H37Ra): 6.25 µg/mL

Compound: COc1ccc(F)c(F)c1Cn1ccc2c(C(=O)NCCF)cc(C)cc21 [A6]
- MIC (M. tuberculosis H37Ra): > 6.25 µg/mL
